Data: paper PMC7618403 (Science (New York, N.Y.), 2026)

How the values were obtained:
[1] = target: T1, XRCC3 complex (XRCC3-RAD51C-RAD51D-XRCC2), XRCC3 site (Homo sapiens, UniProt O43542, E143A); test: ATP hydrolysis assay; format: biochemical; conditions: catalytic glutamate mutant
T1 construct: heterotetramer co-expressed in baculovirus-infected insect cells, purified; DNA repair protein XRCC2

[2] = target: T2, (Homo sapiens, UniProt O15315+O43502); test: ATP hydrolysis assay; format: biochemical; conditions: coupled RAD51B and RAD51C ATPase sites
T2 construct: gene RAD51B; heterotetramer; DNA repair protein XRCC2

[3] = target: T3, RAD51 (filament on ssDNA capped by XRCC3 complex) (Homo sapiens, UniProt Q06609); test: cryo-EM structure, […] A; format: binding; conditions: RAD51 active sites, ATP with Mg2+ and Ca2+
T3 construct: with DNA repair protein XRCC3; DNA repair protein XRCC2

[4] = target: T4, XRCC3 complex (XRCC3-RAD51C-RAD51D-XRCC2), XRCC2 site (Homo sapiens, UniProt O43543); test: cryo-EM structure, […] A; format: binding; conditions: XRCC2 nucleotide site; ATP with Mg2+ and Ca2+; capped RAD51-ssDNA filament
T4 construct: heterotetramer co-expressed in baculovirus-infected insect cells, purified; caps a RAD51-ssDNA filament; with DNA repair protein XRCC3

[5] = target: T5, XRCC3 complex (XRCC3-RAD51C-RAD51D-XRCC2), XRCC3 site (Homo sapiens, UniProt O43542); test: cryo-EM structure, […] A; format: binding; conditions: XRCC3 active site; ATP with Mg2+ and Ca2+; capped RAD51-ssDNA filament
T5 construct: heterotetramer co-expressed in baculovirus-infected insect cells, purified; in the structure it caps a RAD51-ssDNA filament; DNA repair protein XRCC2

[6] = target: T5, XRCC3 complex (XRCC3-RAD51C-RAD51D-XRCC2), XRCC3 site; test: ATP hydrolysis assay; format: biochemical; conditions: catalytic glutamate mutant
Target sequence in this assay (O43502 whole entry E161A partner, one chain of several): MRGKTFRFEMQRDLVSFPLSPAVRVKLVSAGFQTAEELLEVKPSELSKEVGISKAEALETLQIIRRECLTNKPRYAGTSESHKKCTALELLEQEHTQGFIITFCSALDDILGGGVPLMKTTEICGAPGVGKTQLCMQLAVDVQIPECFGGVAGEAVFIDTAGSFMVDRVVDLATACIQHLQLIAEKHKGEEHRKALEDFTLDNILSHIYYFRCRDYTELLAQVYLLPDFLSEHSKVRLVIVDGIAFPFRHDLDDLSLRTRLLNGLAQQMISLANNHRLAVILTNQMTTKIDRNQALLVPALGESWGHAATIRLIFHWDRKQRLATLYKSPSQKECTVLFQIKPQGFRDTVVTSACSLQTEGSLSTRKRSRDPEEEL

[7] = target: T6, XRCC3 complex (XRCC3-RAD51C-RAD51D-XRCC2), RAD51D site (Homo sapiens, UniProt O75771); test: cryo-EM structure, […] A; format: binding; conditions: RAD51D nucleotide site; ATP with Mg2+ and Ca2+; capped RAD51-ssDNA filament
T6 construct: heterotetramer co-expressed in baculovirus-infected insect cells, purified; caps a RAD51-ssDNA filament; with DNA repair protein XRCC3; DNA repair protein XRCC2

[8] = target: T7, RAD51B complex (RAD51B-RAD51C-RAD51D-XRCC2; BCDX2) (Homo sapiens, UniProt O15315+O43502, O43502:E161A); test: ATP hydrolysis assay; format: biochemical; conditions: catalytic glutamate mutant
T7 construct: heterotetramer; DNA repair protein XRCC2

RAD51 [9] = target: T8, RAD51 (human, UniProt Q06609 1-339); test: MST
T8 chain: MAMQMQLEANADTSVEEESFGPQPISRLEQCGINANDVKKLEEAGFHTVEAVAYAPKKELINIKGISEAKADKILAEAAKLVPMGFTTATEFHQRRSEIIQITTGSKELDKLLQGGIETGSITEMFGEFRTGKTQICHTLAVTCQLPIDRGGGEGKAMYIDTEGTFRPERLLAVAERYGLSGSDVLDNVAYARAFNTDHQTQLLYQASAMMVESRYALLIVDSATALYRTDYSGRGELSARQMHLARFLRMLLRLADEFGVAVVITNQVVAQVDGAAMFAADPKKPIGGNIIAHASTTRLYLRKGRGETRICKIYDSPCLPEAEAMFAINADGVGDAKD

RAD51 [10] = target: T8, RAD51; test: MST; 1 mM ATP and CaCl2

T1 sequence (O43542 whole entry E143A, one chain of several): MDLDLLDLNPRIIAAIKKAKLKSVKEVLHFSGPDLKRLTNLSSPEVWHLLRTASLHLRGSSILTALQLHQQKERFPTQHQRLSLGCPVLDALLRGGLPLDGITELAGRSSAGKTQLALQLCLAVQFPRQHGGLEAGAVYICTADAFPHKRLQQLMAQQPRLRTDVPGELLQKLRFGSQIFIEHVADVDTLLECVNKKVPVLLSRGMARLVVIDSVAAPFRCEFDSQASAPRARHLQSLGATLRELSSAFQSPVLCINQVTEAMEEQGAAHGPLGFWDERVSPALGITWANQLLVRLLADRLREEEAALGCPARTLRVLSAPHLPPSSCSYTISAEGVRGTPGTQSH
T2 sequence (O15315 whole entry, one chain of several): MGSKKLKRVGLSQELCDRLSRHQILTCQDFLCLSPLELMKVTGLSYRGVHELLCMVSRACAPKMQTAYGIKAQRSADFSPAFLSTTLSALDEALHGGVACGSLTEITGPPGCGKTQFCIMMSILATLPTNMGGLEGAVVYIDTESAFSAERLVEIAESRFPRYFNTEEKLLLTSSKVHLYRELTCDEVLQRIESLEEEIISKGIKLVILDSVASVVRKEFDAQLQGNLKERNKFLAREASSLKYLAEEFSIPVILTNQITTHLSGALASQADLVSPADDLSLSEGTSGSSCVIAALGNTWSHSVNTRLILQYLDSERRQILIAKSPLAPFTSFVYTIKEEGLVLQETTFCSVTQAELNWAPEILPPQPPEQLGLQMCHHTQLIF
T7 sequence (O15315 whole entry, one chain of several): as above
T7 sequence (O43502 whole entry E161A, one chain of several): as the sequence (O43502 whole entry E161A partner, one chain of several) above

`Nc1ncnc2c1ncn2[C@@H]1O[C@H](COP(=O)(O)OP(=O)(O)OP(=O)(O)O)[C@@H](O)[C@H]1O` [ATP] was tested, and the ATP hydrolysis assay [1] was “residual activity was eliminated by an XRCC3 catalytic glutamate mutant (XRCC3^E143A)”, the ATP hydrolysis assay [2] was “XRCC3 complex displayed minimal ATPase activity relative to the RAD51B complex” and the “cryo-EM structure, 2.7 A” value [3] was “XRCC3 and RAD51 protomers were also bound to ATP”. The “cryo-EM structure, 2.7 A” value [4] was “RAD51D and XRCC2 were both bound to ATP”, the “cryo-EM structure, 2.7 A” value [5] was “XRCC3 and RAD51 protomers were also bound to ATP” and the ATP hydrolysis assay [6] was “mutation of the catalytic glutamate in RAD51C (RAD51C^E161A) had no effect on ATPase activity”. The “cryo-EM structure, 2.7 A” value [7] was “RAD51D and XRCC2 were both bound to ATP” and the ATP hydrolysis assay [8] was “the same mutation abolishing the ATPase activity in the RAD51B complex”.

B1: XRCC3-RAD51C-RAD51D-XRCC2 complex (complex)
chain 1: MDLDLLDLNPRIIAAIKKAKLKSVKEVLHFSGPDLKRLTNLSSPEVWHLLRTASLHLRGSSILTALQLHQQKERFPTQHQRLSLGCPVLDALLRGGLPLDGITELAGRSSAGKTQLALQLCLAVQFPRQHGGLEAGAVYICTEDAFPHKRLQQLMAQQPRLRTDVPGELLQKLRFGSQIFIEHVADVDTLLECVNKKVPVLLSRGMARLVVIDSVAAPFRCEFDSQASAPRARHLQSLGATLRELSSAFQSPVLCINQVTEAMEEQGAAHGPLGFWDERVSPALGITWANQLLVRLLADRLREEEAALGCPARTLRVLSAPHLPPSSCSYTISAEGVRGTPGTQSH
chain 2: MRGKTFRFEMQRDLVSFPLSPAVRVKLVSAGFQTAEELLEVKPSELSKEVGISKAEALETLQIIRRECLTNKPRYAGTSESHKKCTALELLEQEHTQGFIITFCSALDDILGGGVPLMKTTEICGAPGVGKTQLCMQLAVDVQIPECFGGVAGEAVFIDTEGSFMVDRVVDLATACIQHLQLIAEKHKGEEHRKALEDFTLDNILSHIYYFRCRDYTELLAQVYLLPDFLSEHSKVRLVIVDGIAFPFRHDLDDLSLRTRLLNGLAQQMISLANNHRLAVILTNQMTTKIDRNQALLVPALGESWGHAATIRLIFHWDRKQRLATLYKSPSQKECTVLFQIKPQGFRDTVVTSACSLQTEGSLSTRKRSRDPEEEL
chain 3: MGVLRVGLCPGLTEEMIQLLRSHRIKTVVDLVSADLEEVAQKCGLSYKALVALRRVLLAQFSAFPVNGADLYEELKTSTAILSTGIGSLDKLLDAGLYTGEVTEIVGGPGSGKTQVCLCMAANVAHGLQQNVLYVDSNGGLTASRLLQLLQAKTQDEEEQAEALRRIQVVHAFDIFQMLDVLQELRGTVAQQVTGSSGTVKVVVVDSVTAVVSPLLGGQQREGLALMMQLARELKTLARDLGMAVVVTNHITRDRDSGRLKPALGRSWSFVPSTRILLDTIEGAGASGGRRMACLAKSSRQPTGFQEMVDIGTWGTSEQSATLQGDQT
chain 4: MCSAFHRAESGTELLARLEGRSSLKEIEPNLFADEDSPVHGDILEFHGPEGTGKTEMLYHLTARCILPKSEGGLEVEVLFIDTDYHFDMLRLVTILEHRLSQSSEEIIKYCLGRFFLVYCSSSTHLLLTLYSLESMFCSHPSLCLLILDSLSAFYWIDRVNGGESVNLQESTLRKCSQCLEKLVNDYRLVLFATTQTIMQKASSSSEEPSHASRRLCDVDIDYRPYLCKAWQQLVKHRMFFSKQDDSQSSNQFSLVSRCLKSNSLKKHFFIIGESGVEFC
In the case of B1, the Kd (RAD51 [9]) is reported as 57 nM.

B2: RAD51C-XRCC3 heterodimer (complex)
chain 1: B1 chain 2
chain 2: B1 chain 1
B2 showed a Kd (RAD51 [10]) of 93 nM.
